Data taken from patent publication US20090280160A1, “PHENYLEPHRINE PHARMACEUTICAL FORMULATIONS AND COMPOSITIONS FOR TRANSMUCOSAL ABSORPTION” (Schering-Plough Healthcare Products, Inc., priority 2007, published 2009).
“Also recorded” adds a separate entry of the source.

Target: T1, α1b adrenoreceptor (Homo sapiens, UniProt P35368)
T1 construct: expressed in transfected cells
T1 sequence (P35368 1-520): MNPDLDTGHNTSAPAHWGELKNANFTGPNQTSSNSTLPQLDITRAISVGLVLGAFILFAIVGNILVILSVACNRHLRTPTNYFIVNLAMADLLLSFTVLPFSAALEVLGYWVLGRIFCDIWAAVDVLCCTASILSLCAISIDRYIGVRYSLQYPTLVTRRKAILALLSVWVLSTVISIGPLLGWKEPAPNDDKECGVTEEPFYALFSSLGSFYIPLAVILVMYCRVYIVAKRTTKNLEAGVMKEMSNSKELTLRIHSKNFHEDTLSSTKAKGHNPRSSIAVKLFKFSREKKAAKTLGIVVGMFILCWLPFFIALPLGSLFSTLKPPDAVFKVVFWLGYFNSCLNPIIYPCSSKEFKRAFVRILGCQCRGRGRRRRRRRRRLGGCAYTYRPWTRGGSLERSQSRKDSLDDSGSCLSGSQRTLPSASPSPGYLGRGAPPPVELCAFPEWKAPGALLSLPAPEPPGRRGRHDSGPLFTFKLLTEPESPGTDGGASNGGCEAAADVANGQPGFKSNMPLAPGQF
Experiment: Cellular calcium flux (FLIPR), α1b expressing CHO cells
Assay type: cell-based
Conditions: for increase in intracellular calcium, α1b calcium assay (in words): α1b expressing CHO cells
Method: The affinity and activity of phenylephrine metabolites were evaluated in human recombinant α1 and α2 adrenoreceptor binding and activity assays. […] Affinity of the metabolites was determined by receptor binding assays. Functional activity of the metabolites was assessed using an [^35S]-GTPγS binding exchange assay for the α2 receptor subtypes and a cell-based calcium flux response for the α1 receptor subtypes.
Intracellular calcium levels were measured using a fluorometric imaging plate reader (FLIPR). Cells expressing α1 adrenoreceptors were cultured overnight at 15,000 cells/well in 96 well black-wall clear bottom plates (Packard). Adherent cells were loaded for 1 hour at 37° C. using the FLIPR Calcium Plus Assay Kit (Molecular Probes, Eugene, Oreg.), which included 2.5 mM probenecid (Sigma). Compounds (at 10 mM in 100% DMSO) were diluted in diluting buffer (HBSS, 20 mM HEPES, 2.5 mM probenecid, 0.5% BSA, pH 7.4). A titration of norepinephrine was included in every experiment and norepinephrine (at 1 μM) was also used as a plate standard on each assay plate. Cells were maintained at 37° C. throughout all calcium measurements. Fluorescence data was collected at 1 second interval for 60 seconds, followed by collection at 2 second intervals for 30 seconds. Background fluorescence was quantitated in wells containing cells with no additions and was subtracted from all experimental samples. All conditions were done in quadruplicate. Non-linear regression analysis using GraphPad Prism was used to calculate EC50 values.
Each metabolite was evaluated in each assay in at least 2 independent experiments and a representative assay of each metabolite/assay combination is shown.

Compound	agonist activity, α1b calcium assay (in words) (highest concentration evaluated (10 μM))	increase in intracellular calcium, α1b calcium assay (in words)	EC50 (α1b-expressing CHO cells, read-out: EC50, a1b Calcium (class symbol)) [µM]	fold less potent than PE in inducing a calcium increase, α1b cells (batch b4, approximately 0.28% PE)	increase in intracellular calcium, α1b calcium assay (in words) (listed as PE glucuronide batch 4)
O=C(O)C(O)c1cccc(O)c1 (stereo not drawn) [3-hydroxymandelic acid]	no activity	not active	> 10		
CNC[C@H](O)c1cccc(O[C@@H]2O[C@H](C(=O)O)[C@@H](O)[C@H](O)[C@H]2O)c1 [PE glucuronide, (R)-PE glucuronide]		consistent with level of contaminating phenylephrine; also recorded: pharmacologically inactive		300-450 fold	minimal activity
